Experiments:
[1] = system: KU19-19 cells; assay: CVA21 cytotoxicity, KU19-19 cells; type: cell-based, Human; settings: FIG. 2b
[2] = system: bladder cancer cell lines; assay: Combination of CVA21 and chemotherapy on cell proliferation, combination index (CalcuSyn); type: cell-based, Human; settings: for combination index values: fixed ratio design
Protocol: FIG. 2 c): The effect of the combination of CVA21 and chemotherapy on cell proliferation was assessed by calculating combination index (CI) values using CalcuSyn software (Biosoft).
Combining CVA21 with the chemotherapy agents Mitomycin C and Gemcitabine has shown surprising synergy. […] Preliminary data using the same method has found from the 50% to the 75% effect levels, combination index values of 0.69-0.83 with Gemcitabine (FIG. 2b). In brief, 5637/T24/TCCSUP-1 cells were plated at 1×10^4 cells per well (100 μL) of a 96 well tray and incubated at 37° C. for 24 hrs. Mitomycin C was diluted in 10% FCS medium in doubling dilutions from between 2.8 to 0.02 ug/ml for 5637 cells and between 3.36 to 0.03 ug/ml for T24 cells. CVA21 was then diluted between MOI 25-0.196 in doubling dilutions using each dilution of Mitomycin C. The cells were then treated with each dilution of CVA21/Mitomycin C and incubated for 72 hrs. The medium was removed and 100 μl of diluted MTS reagent (Promega) was added. The plates were then incubated for 1-4 hrs and absorbance read at 492 nm.

[3] = system: late stage melanoma patients; settings: Phase II, intralesional treatment, cited from earlier work
[4] = system: bladder cell line T24; assay: Synergy between MMC and CVA21, dose matrix, T24 cells; type: cell-based, Human; settings: CVA21 (0-50 TCID50/cell) with MMC (0-3.36 ug/ml), at low mitomycin concentrations, especially below 0.2 ug/ml
Protocol: In brief, 5637/T24/TCCSUP-1 cells were plated at 1×10^4 cells per well (100 μL) of a 96 well tray and incubated at 37° C. for 24 hrs. Mitomycin C was diluted in 10% FCS medium in doubling dilutions from between 2.8 to 0.02 ug/ml for 5637 cells and between 3.36 to 0.03 ug/ml for T24 cells. CVA21 was then diluted between MOI 25-0.196 in doubling dilutions using each dilution of Mitomycin C. The cells were then treated with each dilution of CVA21/Mitomycin C and incubated for 72 hrs. The medium was removed and 100 μl of diluted MTS reagent (Promega) was added. The plates were then incubated for 1-4 hrs and absorbance read at 492 nm.

With Coxsackievirus A21 [CVA21] the “susceptibility of cell line to CVA21” value [1] was “resistant”, the “synergy with sequential dosing” value ([2]; CVA21 administered 4 hours after MMC, compared with concomitant dosing) was “synergy is well maintained” and the combination index values ([2]; CVA21 with Gemcitabine, from the 50% to the 75% effect levels, preliminary data) was 0.69-0.83. The combination index values ([2]; CVA21 with Mitomycin C, from the 50% to the 90% effect levels) was 0.40-0.55, the tolerability [3] was “generally being well-tolerated” and the clinical activity ([3]; late stage melanoma) was “activity in both injected lesions and non-injected distant lesions”. The CI values [4] was under 1.

From patent US20190134120A1, “METHODS FOR THE TREATMENT OF BLADDER CANCER” (Viralytics Limited, priority 2013, published 2019)
